Data from ChEMBL document CHEMBL1131872, “3-Amidinophenylalanine-based inhibitors of urokinase” (Bioorg Med Chem Lett, 1999).

Experiments:
[1] = molecular target: T1, Urokinase-type plasminogen activator (Homo sapiens, UniProt P00749); test: Tested for inhibition of plasminogen activator urokinase (microPa)
[2] = molecular target: T2, Plasminogen (Homo sapiens, UniProt P00747); test: Tested for inhibition of plasmin
[3] = molecular target: T3, Serine protease 1 (Bos taurus, UniProt P00760); test: Tested for inhibition of trypsin
T3 sequence (P00760 whole entry): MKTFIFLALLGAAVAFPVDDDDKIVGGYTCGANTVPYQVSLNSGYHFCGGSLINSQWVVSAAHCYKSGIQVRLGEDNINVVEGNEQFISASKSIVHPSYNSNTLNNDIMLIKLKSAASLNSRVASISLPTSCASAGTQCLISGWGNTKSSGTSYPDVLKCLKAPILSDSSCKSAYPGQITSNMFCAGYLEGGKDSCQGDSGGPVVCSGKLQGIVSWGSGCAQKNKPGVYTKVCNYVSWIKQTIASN

[4] = molecular target: T1, Urokinase-type plasminogen activator; test: Compound was tested for inhibition of plasminogen activator urokinase (microPa).
[5] = Compound was tested for inhibition of protein Ca
[6] = molecular target: T2, Plasminogen; test: Compound was tested for inhibition of plasmin
[7] = Compound was tested for inhibition of sc-tissue plasminogen activator
[8] = molecular target: T3, Serine protease 1; test: Compound was tested for inhibition of trypsin
[9] = molecular target: T1, Urokinase-type plasminogen activator; test: Compound was tested for inhibition of plasminogen activator urokinase (microPa)
[10] = molecular target: Prothrombin (Homo sapiens, UniProt P00734); test: Compound was tested for inhibition of thrombin; design: species or system Bos taurus
[11] = molecular target: Plasma kallikrein (Homo sapiens, UniProt P03952); test: Compound was tested for inhibition of plasma kallikrein
Plasma kallikrein, sequence (P03952 20-390 limits assumed): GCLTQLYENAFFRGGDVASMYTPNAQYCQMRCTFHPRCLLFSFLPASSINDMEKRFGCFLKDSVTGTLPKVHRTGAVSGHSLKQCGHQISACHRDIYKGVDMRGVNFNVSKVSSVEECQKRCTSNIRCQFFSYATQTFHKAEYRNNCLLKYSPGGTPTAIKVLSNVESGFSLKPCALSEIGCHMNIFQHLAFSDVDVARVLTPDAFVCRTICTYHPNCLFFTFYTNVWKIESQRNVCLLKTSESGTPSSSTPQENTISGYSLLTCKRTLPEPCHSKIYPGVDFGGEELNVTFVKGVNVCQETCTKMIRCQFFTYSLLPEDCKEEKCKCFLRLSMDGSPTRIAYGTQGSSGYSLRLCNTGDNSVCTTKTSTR
Plasma kallikrein, sequence (P03952 391-638 limits assumed): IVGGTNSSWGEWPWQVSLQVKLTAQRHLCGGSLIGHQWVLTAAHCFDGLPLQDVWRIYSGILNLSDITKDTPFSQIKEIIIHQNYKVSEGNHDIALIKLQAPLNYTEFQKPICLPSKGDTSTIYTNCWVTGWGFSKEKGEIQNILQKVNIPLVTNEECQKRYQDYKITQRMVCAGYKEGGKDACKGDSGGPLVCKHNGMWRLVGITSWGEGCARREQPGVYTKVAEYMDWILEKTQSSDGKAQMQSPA

[12] = molecular target: Coagulation factor X (Bos taurus, UniProt P00743); test: Compound was tested for inhibition of Coagulation factor X
Coagulation factor X, sequence (P00743 41-180 limits assumed): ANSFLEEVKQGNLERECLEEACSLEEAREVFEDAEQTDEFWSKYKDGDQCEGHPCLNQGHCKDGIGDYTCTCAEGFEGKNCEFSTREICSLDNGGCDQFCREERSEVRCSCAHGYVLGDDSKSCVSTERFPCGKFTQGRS
Coagulation factor X, sequence (P00743 234-492 limits assumed): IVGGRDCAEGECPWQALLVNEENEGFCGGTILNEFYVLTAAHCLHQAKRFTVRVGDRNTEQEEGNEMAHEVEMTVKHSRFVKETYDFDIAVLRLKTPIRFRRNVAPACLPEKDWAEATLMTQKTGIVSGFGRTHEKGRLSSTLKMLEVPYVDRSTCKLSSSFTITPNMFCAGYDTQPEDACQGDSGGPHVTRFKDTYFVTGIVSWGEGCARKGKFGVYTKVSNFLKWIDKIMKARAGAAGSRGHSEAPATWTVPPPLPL

T2 sequence (P00747 97-580 limits assumed): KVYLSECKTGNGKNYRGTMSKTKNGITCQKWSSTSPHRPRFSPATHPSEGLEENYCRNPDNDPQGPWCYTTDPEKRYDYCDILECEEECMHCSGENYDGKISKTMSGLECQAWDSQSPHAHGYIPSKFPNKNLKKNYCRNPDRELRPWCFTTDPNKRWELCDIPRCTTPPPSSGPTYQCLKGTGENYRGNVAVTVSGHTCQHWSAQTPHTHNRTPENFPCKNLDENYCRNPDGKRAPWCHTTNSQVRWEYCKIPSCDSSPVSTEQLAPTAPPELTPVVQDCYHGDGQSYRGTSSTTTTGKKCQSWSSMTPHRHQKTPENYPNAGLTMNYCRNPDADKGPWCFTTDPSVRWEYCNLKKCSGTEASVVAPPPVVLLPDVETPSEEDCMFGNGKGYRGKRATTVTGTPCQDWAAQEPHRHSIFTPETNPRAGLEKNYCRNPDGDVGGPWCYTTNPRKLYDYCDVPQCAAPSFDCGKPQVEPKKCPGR
T2 sequence (P00747 581-810 limits assumed): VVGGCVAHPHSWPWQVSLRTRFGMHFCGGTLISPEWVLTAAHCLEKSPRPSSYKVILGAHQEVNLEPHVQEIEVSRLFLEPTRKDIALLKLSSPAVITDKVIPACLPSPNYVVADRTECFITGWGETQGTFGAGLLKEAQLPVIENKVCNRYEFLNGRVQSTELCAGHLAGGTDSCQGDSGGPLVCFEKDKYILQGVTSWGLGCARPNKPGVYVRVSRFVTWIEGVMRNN

| Compound | Ki [1] | Ki [2] | Ki [3] | also measured |
| --- | --- | --- | --- | --- |
| COC(=O)C1CCN(C(=O)C(Cc2cccc(C(=N)N)c2)NS(=O)(=O)c2c(C(C)C)cc(C(C)C)cc2C(C)C)CC1 (stereo not drawn) | 1.3 µM | 1.4 µM | – | – |
| COC(=O)C1CCCN(C(=O)C(Cc2cccc(C(=N)N)c2)NS(=O)(=O)c2c(C(C)C)cc(C(C)C)cc2C(C)C)C1 (stereo not drawn) | 2.5 µM | 1 µM | 0.36 µM | – |
| CC(C)c1cc(C(C)C)c(S(=O)(=O)NC(Cc2cccc(C(=N)N)c2)C(=O)N2CCCC(C(=O)O)C2)c(C(C)C)c1 (stereo not drawn) | 17 µM | 8.2 µM | – | – |
| CCOC(=O)N1CCN(C(=O)C(Cc2cccc(C(=N)N)c2)NS(=O)(=O)c2c(C(C)C)cc(C(C)C)cc2C(C)C)CC1 (stereo not drawn) | 0.96 µM | 1.2 µM | 0.12 µM | – |
| CC(C)c1cc(C(C)C)c(S(=O)(=O)NC(Cc2cccc(C(=N)N)c2)C(=O)N2CCCCC2C(=O)O)c(C(C)C)c1 (stereo not drawn) | 1.3 µM | 1.5 µM | 0.5 µM | – |
| COC(=O)C1CCCCN1C(=O)C(Cc1cccc(C(=N)N)c1)NS(=O)(=O)c1c(C(C)C)cc(C(C)C)cc1C(C)C (stereo not drawn) | 33 µM | 1 µM | 1.4 µM | – |
| N=C(N)c1cccc(CC(NS(=O)(=O)c2ccc3ccccc3c2)C(=O)N2CCCC2)c1 (stereo not drawn) | – | 12 µM | – | Ki [4]: 73 µM |
| CNC(=O)C1CCN(C(=O)C(Cc2cccc(C(=N)N)c2)NS(=O)(=O)c2c(C(C)C)cc(C(C)C)cc2C(C)C)CC1 (stereo not drawn) | 4.8 µM | 2.5 µM | 0.36 µM | – |
| CC1CCN(C(=O)C(Cc2cccc(C(=N)N)c2)NS(=O)(=O)c2c(C(C)C)cc(C(C)C)cc2C(C)C)CC1 (stereo not drawn) | – | 4 µM | – | – |
| CC(C)c1cc(C(C)C)c(S(=O)(=O)NC(Cc2cccc(C(=N)N)c2)C(=O)N2CCC(C(=O)O)CC2)c(C(C)C)c1 (stereo not drawn) | 52 µM | 12 µM | 6.4 µM | – |
| N=C(N)c1cccc(CC(NS(=O)(=O)c2ccc3ccccc3c2)C(=O)N2CCOCC2)c1 (stereo not drawn) | 58 µM | 7.7 µM | – | – |
| N=C(N)c1cccc(CC(NS(=O)(=O)c2ccc3ccccc3c2)C(=O)N2CCCCCC2)c1 (stereo not drawn) | 28 µM | 6.6 µM | 0.74 µM | – |
| CC(C)c1cc(C(C)C)c(S(=O)(=O)NC(Cc2cccc(C(=N)N)c2)C(=O)N2CCCCC2)c(C(C)C)c1 (stereo not drawn) | 5.1 µM | 2.6 µM | 1.3 µM | – |
| CNC(=O)C1CCCN(C(=O)C(Cc2cccc(C(=N)N)c2)NS(=O)(=O)c2c(C(C)C)cc(C(C)C)cc2C(C)C)C1 (stereo not drawn) | 12 µM | 0.4 µM | – | – |
| CCOC(=O)N1CCN(C(=O)[C@H](Cc2cccc(C(=N)N)c2)NS(=O)(=O)c2c(C(C)C)cc(C(C)C)cc2C(C)C)CC1 | – | – | – | Ki [5]: 2.3 µM; Ki [6]: 0.39 µM; Ki [7]: 4.9 µM; Ki [8]: 0.037 µM; Ki [9]: 0.41 µM; Ki [10]: 0.49 µM; Ki [11]: 7.2 µM; Ki [12]: 1.7 µM |
| CC(C)c1cc(C(C)C)c(S(=O)(=O)NC(Cc2cccc(C(=N)N)c2)C(=O)N2CCCCCCC2)c(C(C)C)c1 (stereo not drawn) | 7.8 µM | 3.2 µM | 0.83 µM | – |
| CC(C)c1cc(C(C)C)c(S(=O)(=O)NC(Cc2cccc(C(=N)N)c2)C(=O)N2CCN(C)CC2)c(C(C)C)c1 (stereo not drawn) | 52 µM | 21 µM | 3 µM | – |
| CC(C)c1cc(C(C)C)c(S(=O)(=O)NC(Cc2cccc(C(=N)N)c2)C(=O)N2CCCCCC2)c(C(C)C)c1 (stereo not drawn) | 4.4 µM | 2.8 µM | 0.95 µM | – |
| CC(C)c1cc(C(C)C)c(S(=O)(=O)NC(Cc2cccc(C(=N)N)c2)C(=O)N2CCNCC2)c(C(C)C)c1 (stereo not drawn) | 12 µM | 7.1 µM | 0.98 µM | – |
| N=C(N)c1cccc(CC(NS(=O)(=O)c2ccc3ccccc3c2)C(=O)N2CCCCCCC2)c1 (stereo not drawn) | 19 µM | 7.8 µM | – | – |
| CC(C)c1cc(C(C)C)c(S(=O)(=O)NC(Cc2cccc(C(=N)N)c2)C(=O)N2CCOCC2)c(C(C)C)c1 (stereo not drawn) | 5.4 µM | 4.5 µM | 0.49 µM | – |
| COC(=O)N1CCN(C(=O)C(Cc2cccc(C(=N)N)c2)NS(=O)(=O)c2c(C(C)C)cc(C(C)C)cc2C(C)C)CC1 (stereo not drawn) | – | 1.8 µM | 0.11 µM | – |
| CC(C)c1cc(C(C)C)c(S(=O)(=O)NC(Cc2cccc(C(=N)N)c2)C(=O)N2CCN(S(C)(=O)=O)CC2)c(C(C)C)c1 (stereo not drawn) | 19 µM | 8 µM | 0.62 µM | – |
| CC(C)c1cc(C(C)C)c(S(=O)(=O)NC(Cc2cccc(C(=N)N)c2)C(=O)N2CCCC2)c(C(C)C)c1 (stereo not drawn) | 19 µM | 9.6 µM | 3.9 µM | – |
